Experimental data: patent US5491072A, “N-alkylacridan carboxyl derivatives useful for chemiluminescent detection” (Lumigen, Inc., priority 1993, dated 1996)

Columns and labels:
horseradish peroxidase = target: T1, horseradish peroxidase (Armoracia rusticana, UniProt P00433); assay: Comparison of compounds 1a-e at pH 8.9, time course and total intensity of chemiluminescence; assay type: biochemical; conditions: 0.01 mM acridan, 0.1M phosphate pH 8.9, 6.2 mM H2O2, 2.25 mM p-iodophenol, 1×10^-13 mol HRP; for I max (RLU), peak light intensity: 0.5% Tween 20, 1 mM EDTA
T1 sequence (P00433 31-338 limits assumed): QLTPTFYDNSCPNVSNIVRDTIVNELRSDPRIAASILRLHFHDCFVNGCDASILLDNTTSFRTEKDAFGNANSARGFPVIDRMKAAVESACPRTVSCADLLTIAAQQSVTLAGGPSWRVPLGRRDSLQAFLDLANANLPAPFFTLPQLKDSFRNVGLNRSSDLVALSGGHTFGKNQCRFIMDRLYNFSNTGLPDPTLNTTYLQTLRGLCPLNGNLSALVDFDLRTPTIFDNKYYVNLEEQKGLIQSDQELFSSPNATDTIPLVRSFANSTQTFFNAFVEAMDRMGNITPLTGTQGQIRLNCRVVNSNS
Experimental: (§1) The experiments in the following examples were performed using a Turner Designs TD-20e luminometer fitted with neutral density filter for light attenuation. Data collection, analysis and display were software controlled. Constant temperature was maintained by means of an external circulating water bath connected to the luminometer.
A 200 μL volume of a formulation containing 0.01 mM acridan compound 1a-e in 0.1M phosphate buffer, pH 8.9, […] (6.2 mM) H2 O2, 2.25 mM p-iodophenol, 0.5% (w/w) Tween 20 and 1 mM EDTA was reacted with 1×10^-13 mol of horseradish peroxidase. […] Compared below are the peak light intensity (Imax) in relative light units (RLU), the time to maximum light intensity (tmax) and total light output.

HRP [1] = target: T2, HRP (Armoracia rusticana, UniProt P00433); assay: Improvement of detection by phenol enhancers; assay type: biochemical, horseradish; conditions: 2.25 mM enhancer, 0.1 mM 1b, 0.8 mM H2O2, 0.5% Tween 20, 0.1M tris pH 8.5, 25° C., 1×10^-15 mol HRP, 30 min
T2 sequence (P00433 31-338 limits assumed): T1 sequence (P00433 31-338 limits assumed)
Experimental: as §1
To 220 μL of a formulation containing 0.1 mM 1b, 2.25 mM enhancer, 0.8 mM H2 O2, 0.5% (w/w) Tween 20 and 1 mM EDTA in 0.1M tris buffer, pH 8.5 at 25° C. an aliquot containing 1×10^-15 mol of HRP was injected and the chemiluminescence at 30 min was measured.

[2] = Improvement of detection by surfactants, background luminescence of 1b solution without peroxidase; conditions: Tween 20 0.5%-1%; no added peroxidase
Source text: The improvement occurs through minimizing the background chemiluminescence in the absence of added peroxidase, possibly due to a slowing of the autoxidative decomposition of the ester. In one experiment, Tween 20 (0.5%-1%) decreased the background luminescence from a solution of 1b by a factor of 65 compared to a similar solution lacking the surfactant.

[3] = benzoyl peroxide, aqueous solution; cited from earlier work
HRP [4] = target: T2, HRP; assay: Optimization of enhancer and peroxide concentration, HRP-catalyzed oxidation of 1b; assay type: biochemical, horseradish; conditions: at the best level, 7×10^-16 mol HRP, 15 min, 0.1M tris pH 8.0, substrate 1b
Experimental: as §1
Enhancement of light emission from the HRP-catalyzed oxidation of 1b was studied using p-iodophenol. A series of concentrations of p-iodophenol (0.23 mM-4.5 mM) was used in 0.1M tris buffer, pH 8.0. Signal to background ratios obtained after incubation with 7×10^-16 mol of HRP for 15 min were compared using different assay reagents 1b (0.1 mM-0.05 mM) and peroxide (0.2 mM-0.8 mM)]. The best compromise between sensitivity and concentration was obtained using 1.1 mMp-iodophenol with 0.8 mMperoxide and 0.05 mM 1b. At the best level, 2500-fold enhancement in chemiluminescence intensity (compared to an identical solution containing no enhancer) was obtained using p-iodophenol with 7×10^-16 mol of enzyme.

| I max (RLU), peak light intensity (horseradish peroxidase) [RLU] | I total (RLU), total light output (horseradish peroxidase) | t max (min), time to maximum light intensity (horseradish peroxidase) [min] | Compound | S/B (HRP [1]) | also measured |
| --- | --- | --- | --- | --- | --- |
| 247 | ca. 6 × 10^5 RLU | 9.6 | CN1c2ccccc2C(C(=O)Oc2ccccc2)c2ccccc21 [Compound 1a, Phenyl 10-methylacridan-9-carboxylate] |  |  |
| 24 | 3.6 × 10^4 RLU | 7.8 | CN1c2ccccc2C(C(=O)Oc2cccc(O)c2)c2ccccc21 [Compound 1c, 3'-Hydroxyphenyl 10-methylacridan-9-carboxylate] |  |  |
| 992 | 7.4 × 10^5 RLU | 1.8 | CN1c2ccccc2C(C(=O)Oc2ccc3cc(O)ccc3c2)c2ccccc21 [Compound 1d, 6'-Hydroxynaphthyl 10-methylacridan-9-carboxylate] |  |  |
| 8160 | 1.5 × 10^6 RLU | 1.4 | Cc1ccc(S(=O)(=O)N(C(=O)C2c3ccccc3N(C)c3ccccc32)c2ccccc2)cc1 [Compound 1e] |  |  |

Second part, the compound before the results:

| Compound | I max (RLU), peak light intensity (horseradish peroxidase) [RLU] | I total (RLU), total light output (horseradish peroxidase) | t max (min), time to maximum light intensity (horseradish peroxidase) [min] | S/B (HRP [1]) | also measured |
| --- | --- | --- | --- | --- | --- |
| Oc1ccc2ccccc2c1 [Compound 2-naphthol, 2-naphthol] |  |  |  | 138 |  |
| CCCCCCCCCCCCOS(=O)(=O)[O-].[Na+] [SDS, sodium dodecyl sulfate] |  |  |  |  | decrease of background luminescence from a solution of 1b (factor, compared to a similar solution lacking the surfactant) [2]: similarly lowers background luminescence |
| c1ccc2c(c1)Cc1ccccc1N2 [acridan] |  |  |  |  | chemiluminescence efficiency (OCL) [3]: 3×10^-7 |
| O=C(O)C=Cc1ccc(O)cc1 [p-hydroxycinnamic acid] |  |  |  | 9 |  |
| Oc1ccc(I)cc1 [p-iodophenol] |  |  |  | 600 | enhancement in chemiluminescence intensity (compared to an identical solution containing no enhancer) (HRP [4]): 2500 fold |
| Oc1ccc(-c2ccccc2)cc1 [p-phenylphenol] |  |  |  | 200 |  |
| Tween 20 |  |  |  |  | decrease of background luminescence from a solution of 1b (factor, compared to a similar solution lacking the surfactant) [2]: 65 |
